Assay results from PubChem BioAssay AID1996.
≈ marks a conversion by molar mass, not a printed value.

Details: buffer; pH 7.4; 200.0 µM

Row | Compound | solubility kinetic [µg/mL]
1 | CC(C)CNc1nc(N)c([N+](=O)[O-])c(N2CCCCCC2)n1 | 4.5 (≈ 14.6 µM)
2 | COc1cccc(C(=O)Nc2ccccc2-c2ccccc2)c1 | 24 (≈ 79.1 µM)
3 | O=C1c2ccccc2C(=O)c2[nH]c(=O)[nH]c21 | > 32.1
4 | O=C(Nc1ccccc1F)c1ccc(-c2cccc([N+](=O)[O-])c2)o1 | 2 (≈ 6.13 µM)
5 | CSc1ncccc1C(=O)Nc1nc2ccc(F)cc2s1 | 1.8 (≈ 5.64 µM)
6 | CC(C)Oc1nc(-c2ccc(Cl)cc2)nc2ccccc12 | < 0.3
7 | O=C(CN1C(=O)CSc2ncccc21)Nc1ccccc1F | > 47.6
8 | O=C(NC(=S)N1CCN(C/C=C/c2ccccc2)CC1)c1ccco1 | > 53.3
9 | COc1ccc(NC(=S)N2CCN(C)CC2)cc1 | > 39.8
10 | CCc1ccc(NC(=O)COc2ccc3c(c2)OCO3)cc1 | 4.8 (≈ 16 µM)
11 | CCOC(=O)N1CCN(CC(=O)Nc2ccc(F)cc2F)CC1 | > 49.1
12 | CN(CC(=O)Nc1ccccc1C(F)(F)F)C(=O)CSc1nnc(-c2ccncc2)n1C | > 69.7
13 | Cc1cccc(-c2nc(C#N)c(NCc3ccco3)o2)c1 | 1.9 (≈ 6.8 µM)
14 | O=C(COC(=O)c1cccnc1Cl)NCCc1ccc(F)cc1 | > 50.5
15 | O=S(=O)(c1ccccc1)N(CC(O)CN1CCCC1)c1ccccc1 (stereo not drawn) | 50 (≈ 139 µM)
16 | CN(C)CCN=Cc1c(O)n(Cc2ccc3c(c2)OCO3)c(=S)[nH]c1=O | 55.8 (≈ 148 µM)
17 | Cc1ccc2oc(=O)n(CCCOc3ccccc3C)c2c1 | 0.9 (≈ 3.03 µM)
18 | COc1cccc(CN(C)C(=S)Nc2ccc(C)c(C)c2)c1 | 25.1 (≈ 79.8 µM)
19 | CCCCN1C(=O)CCC(C(=O)O)C1c1ccc([N+](=O)[O-])cc1 (stereo not drawn) | > 48.1
20 | CC(=O)N(CCc1ccccc1)Cc1cc2ccc(C)c(C)c2[nH]c1=O | 17.4 (≈ 49.9 µM)

Row | Compound | solubility kinetic [µg/mL]
21 | O=[N+]([O-])c1ccc(SCCc2cc[nH+]cc2)cc1.[Cl-] | 36.5
22 | c1ccc(-c2noc(-c3ccno3)n2)nc1 | 25.4 (≈ 119 µM)
23 | O=C(Nc1ccc(Cl)cc1)c1ccc(-c2ccccn2)s1 | < 0.3
24 | O=C(CNS(=O)(=O)c1ccccc1)NCC(=O)N1CCCCC1 | > 50.9
25 | CCN(c1ccccc1)S(=O)(=O)c1cccc(C(=O)Nc2ccc(C)cn2)c1 | 9.7 (≈ 24.5 µM)
26 | CC1CN(C(=O)COC(=O)c2ccc(Cl)c(N)c2)CC(C)O1 (stereo not drawn) | > 49
27 | O=C(/C=C/c1ccc(Cl)c([N+](=O)[O-])c1)c1cccnc1 | 2.2 (≈ 7.62 µM)
28 | CC1CCCCN1S(=O)(=O)Cc1ccccc1Cl (stereo not drawn) | > 43.2
29 | Cl.Oc1cc2c(cc1O)C(c1ccccc1)CNCC2 (stereo not drawn) | > 43.8
30 | COc1cc(OC)cc(C(=O)NCC(=O)OCC(=O)NC(C)CCc2ccccc2)c1 (stereo not drawn) | > 64.3
31 | COc1ccccc1/C=C/C(=O)NCC(=O)N/N=C/c1ccc(C)o1 | > 51.2
32 | Cc1ccc(OCCn2cc(/C=C/C(=O)O)c3ccccc32)cc1 | > 48.2
33 | Cc1onc(-c2ccccc2)c1NC(=O)Nc1ccc(OC(F)F)cc1 | 7 (≈ 19.5 µM)
34 | Cc1cc(C)cc(C(=O)NCC(=O)OCC(=O)NC2CCCc3ccccc32)c1 (stereo not drawn) | 8.4 (≈ 21.3 µM)
35 | O=C(O)c1ccc(N2C(=O)CCCC2=O)cc1 | 25.9 (≈ 111 µM)
36 | CN1CCN(c2nc3ccccc3nc2C(C#N)S(=O)(=O)c2ccccc2)CC1 (stereo not drawn) | > 61.1
37 | COc1ccc(C(C)=O)cc1CN1C(=O)NC(CC(C)C)C1=O (stereo not drawn) | > 47.8
38 | COc1ccccc1C(=O)Nc1sc2c(c1C(N)=O)CCCC2 | < 0.4
39 | COc1cc(OC)c(N(C)S(=O)(=O)c2cccc(C(=O)Nc3nccs3)c2)cc1Cl | 4.2 (≈ 8.98 µM)
40 | CSc1ccccc1NC(=O)c1ccc2c(c1)CCN2S(C)(=O)=O | 9.1 (≈ 25.1 µM)

Row | Compound | solubility kinetic [µg/mL]
41 | Cn1c(=O)n(Cc2ccccc2Cl)c(=O)c2c1[nH]c(=S)n2C | > 50.5
42 | O=C1c2ccccc2C(=O)N1Cc1ccccc1F | 1.5 (≈ 5.88 µM)
43 | Cc1ccc(NS(=O)(=O)c2cccc3nsnc23)cc1[N+](=O)[O-] | 50.2 (≈ 143 µM)
44 | O=[N+]([O-])c1ccc2nc(-c3cccnc3)[nH]c2c1 | > 36
45 | O=C(/C=C/c1cc(Br)ccc1F)OCC(=O)N1CCOCC1 | > 55.8
46 | O=C(CN1C(=O)NC2(CCCCCC2)C1=O)c1cccs1 | > 46
47 | CCN(C(=O)COc1ccc(C(C)=O)cc1)c1cccc2ccccc12 | 43.2 (≈ 124 µM)
48 | O=C(CN1C(=O)C2CC=CCC2C1=O)NC1CCCCC1 (stereo not drawn) | 42.5 (≈ 146 µM)
49 | CCOC(=O)N1CCN(C(=O)c2ccc(OC)cc2)CC1 | > 43.9
50 | Cl.NCCN1C(=O)S/C(=C\c2ccc3c(c2)OCO3)C1=O | > 49.3
51 | CCOC(=O)C1=C(C)NC(=O)NC1/C=C\c1ccccc1 (stereo not drawn) | 1.3 (≈ 4.54 µM)
52 | O=C(O)CSc1nc2ccccc2nc1Cc1ccccc1F | 47.7 (≈ 145 µM)
53 | O=S(=O)(NC1CCCCCCC1)c1ccccc1F | 42.5 (≈ 149 µM)
54 | COc1ccc(NS(=O)(=O)c2cc(NC(=O)COc3ccccc3)ccc2N2CCOCC2)cc1 | 3.1 (≈ 6.23 µM)
55 | CCC(C)NC(=O)CN1c2cccc3cccc(c23)S1(=O)=O (stereo not drawn) | 35.5 (≈ 111 µM)
56 | C/C(=N\O)C(C)(C)Nc1cccc(Br)c1 | 37 (≈ 136 µM)
57 | C=CCC1(Cl)C(=O)C(Cl)=C(N2CCN(C)CC2)C1(OC)OC (stereo not drawn) | > 52.4
58 | O=C(Cn1cc([N+](=O)[O-])ccc1=O)NC1CCCCC1 | > 41.9
